Experimental findings from US7932262B2 (Novartis AG, priority 2006, dated 2011) are described below.

Where two headings read alike, the source gives them in different places.

One assay concerns A2780 cells. In words: Cell Proliferation Assay (Cell Titer Glo), A2780. The format is cell-based. The note with it: Homo sapiens, read-out: CPEC50 A2780. As for the experimental part:
IV. Cell Proliferation Assay Protocol:
A2780, PC-3, or PC3MM cells were seeded at 1000 cells/well in 100 μL/well (10.000 cells/mL) growth media in 96-well plates. Cells were allowed to adhere to the bottom of plates for 3-5 hours in a 37° C. 5% CO2 incubator. Compounds were dissolved in DMSO and then transferred to the cell plates. The cells were incubated with the compounds for 3 days in a 37° C. 5% CO2 incubator. The growth medium containing the compounds was then removed from the cells and fresh medium was added, followed by 100 μL of Cell Titer Glo assay reagent (Promega). This mixture was shaken for 1 minute and then incubated without shaking for 10 minutes. Activity determinations for the compounds were made by detection on a Trilux Instrument.
(In general: ATP-based viability assays read luminescence as a measure of living cells.)

The target of another assay is T1, PDK1 kinase (Homo sapiens, UniProt O15530).
T1 sequence (O15530 1-556): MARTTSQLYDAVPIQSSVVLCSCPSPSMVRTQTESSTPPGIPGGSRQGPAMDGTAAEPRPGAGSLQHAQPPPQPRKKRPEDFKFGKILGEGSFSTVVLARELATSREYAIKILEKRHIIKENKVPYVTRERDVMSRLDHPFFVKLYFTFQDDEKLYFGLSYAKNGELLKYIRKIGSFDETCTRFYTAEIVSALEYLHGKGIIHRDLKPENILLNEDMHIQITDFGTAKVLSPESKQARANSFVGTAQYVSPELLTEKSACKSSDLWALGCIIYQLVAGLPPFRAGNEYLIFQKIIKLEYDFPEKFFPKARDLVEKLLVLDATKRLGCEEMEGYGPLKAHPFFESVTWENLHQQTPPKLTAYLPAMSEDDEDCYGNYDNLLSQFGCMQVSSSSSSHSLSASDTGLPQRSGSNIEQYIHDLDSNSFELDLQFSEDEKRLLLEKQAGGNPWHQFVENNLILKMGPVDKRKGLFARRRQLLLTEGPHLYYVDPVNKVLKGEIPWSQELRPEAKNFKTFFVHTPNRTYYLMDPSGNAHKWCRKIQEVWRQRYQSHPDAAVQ
The assay is described as follows: PDK1 Kinase Alpha Screen Assay. The note with it: head of the second part of Table 4: BV11261; read-out: PDK1 BV11261. It counts as biochemical. The gist of the method:
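Test compounds were incubated with PDK1 kinase, 10 uM ATP and 50 nM biotinylated peptide substrate for 3-18 hours at pH 7.5 with 2.5% DMSO. Peptide phosphorylation was then detected by AlphaScreen proximity luminescence using a phospho-(Ser/Thr) PKA substrate antibody.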

For the next assay, the system named is PC-3 cells. The assay is described as follows: Cell Proliferation Assay (Cell Titer Glo), PC-3 cell line. The format is cell-based. The note with it: Homo sapiens, PC-3, PC3 cells; read-out: CPEC50 PC3. The gist of the method:
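PC-3 cells, 1000 cells/well, left to adhere 3-5 h, then exposed for 3 days at 37° C to compounds as 1:3 serial dilutions from 500× DMSO stocks diluted in growth medium. Medium then replaced with fresh medium and viability read by Cell Titer Glo luminescence.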

[1] abbreviates: Cell Proliferation Assay, A2780.

Turning to `COc1ncccc1-c1ccc2cnc(Nc3ccc(S(N)(=O)=O)cc3)nc2c1` [Compound 314, 4-(7-(2-methoxypyridin-3-yl)quinazolin-2-ylamino)benzenesulfonamide], the EC50 in the assay with A2780 cells (setting [1]) was 5 to 10 µM.

For the molecule `Cn1cc(-c2ccc3cnc(Nc4ccc(S(=O)(=O)N5CCOCC5)cc4)nc3c2)cn1` [Compound 317, 7-(1-methyl-1H-pyrazol-4-yl)-N-(4-(morpholinosulfonyl)phenyl)quinazolin-2-amine], the EC50 in the assay with A2780 cells (setting [1]) is < 5 µM.

In the case of `NS(=O)(=O)c1ccc(Nc2ncc3cccc(C(=O)NCc4ccccn4)c3n2)cc1` [Compound 419, N-(pyridin-2-ylmethyl)-2-(4-sulfamoylphenylamino)quinazoline-8-carboxamide], the EC50 with A2780 cells (setting [1]) lay in the range of 5 to 10 µM.

`CC(C)(C)OC(=O)N1CCC(Oc2c(Br)ccc3cnc(Nc4ccc(S(N)(=O)=O)cc4)nc23)CC1` [Compound 420, tert-butyl 4-(7-bromo-2-(4-sulfamoylphenylamino)quinazolin-8-yloxy)piperidine-1-carboxylate]: the EC50 with A2780 cells (setting [1]) was < 5 µM.

As for `CC(C)Oc1cccc2cnc(Nc3cccnc3)nc12` [Compound 522, 8-isopropoxy-N-(pyridin-3-yl)quinazolin-2-amine], the EC50 in the assay on A2780 cells (setting [1]) lay in the range of 5 to 10 µM.

Take `CC(C)Oc1cccc2cnc(NC3CCN(C)CC3)nc12` [Compound 557, 8-isopropoxy-N-(1-methylpiperidin-4-yl)quinazolin-2-amine]: the EC50 in the assay with A2780 cells (setting [1]) lay within 5 to 10 µM.

Consider `CC(C)Oc1cccc2cnc(NCc3ccc(S(N)(=O)=O)cc3)nc12` [Compound 558, 4-((8-isopropoxyquinazolin-2-ylamino)methyl)benzenesulfonamide], for which, in the assay with A2780 cells (setting [1]), the EC50 was 5 to 10 µM.

Turning to `COc1cc(-c2ccc3cnc(Nc4ccc(S(N)(=O)=O)cc4)nc3c2)ccn1` [Compound 560, 4-(7-(2-methoxypyridin-4-yl)quinazolin-2-ylamino)benzenesulfonamide], the EC50 in the assay on A2780 cells (setting [1]) is 5 to 10 µM.

As for `CNC(=O)c1cc(Oc2ccc3cnc(Nc4ccc(S(N)(=O)=O)cc4)nc3c2)ccn1` [Compound 563, N-methyl-4-(2-(4-sulfamoylphenylamino)quinazolin-7-yloxy)picolinamide], the EC50 in the assay with A2780 cells (setting [1]) fell in the range of 5 to 10 µM.

In the case of `CNC(=O)c1cccc2cnc(Nc3ccc(S(N)(=O)=O)cc3)nc12` [Compound 623, N-methyl-2-(4-sulfamoylphenylamino)quinazoline-8-carboxamide], in the assay on A2780 cells (setting [1]), the EC50 is < 5 µM.

On to `NS(=O)(=O)c1ccc(Nc2ncc3cccc(C(=O)NC4CCOCC4)c3n2)cc1` [Compound 625, 2-(4-sulfamoylphenylamino)-N-(tetrahydro-2H-pyran-4-yl)quinazoline-8-carboxamide], for which the EC50 with A2780 cells (setting [1]) is < 5 µM.

Regarding `CC(=O)NCCNC(=O)c1cccc2cnc(Nc3ccc(S(N)(=O)=O)cc3)nc12` [Compound 626, N-(2-acetamidoethyl)-2-(4-sulfamoylphenylamino)quinazoline-8-carboxamide], the EC50 with A2780 cells (setting [1]) lay within 5 to 10 µM.

Regarding `CS(=O)(=O)CCNC(=O)c1cccc2cnc(Nc3ccc(S(N)(=O)=O)cc3)nc12` [Compound 627, N-(2-(methylsulfonyl)ethyl)-2-(4-sulfamoylphenylamino)quinazoline-8-carboxamide], the EC50 in the assay with A2780 cells (setting [1]) was in the range of 5 to 10 µM.

Turning to `NS(=O)(=O)c1ccc(Nc2ncc3cc(F)cc(-c4ccc(F)nc4)c3n2)cc1` [Compound 633, 4-(6-fluoro-8-(6-fluoropyridin-3-yl)quinazolin-2-ylamino)benzenesulfonamide], in the assay with A2780 cells (setting [1]), the EC50 was in the range of 5 to 10 µM.

For the molecule `COc1cc(-c2ccc3cnc(Nc4ccc(S(N)(=O)=O)cc4)nc3c2)c(Cl)cn1` [Compound 696, 4-(7-(5-chloro-2-methoxypyridin-4-yl)quinazolin-2-ylamino)benzenesulfonamide], the EC50 in the assay with A2780 cells (setting [1]) lay in the range of 5 to 10 µM.

On to `COc1cccc(COc2cccc3cnc(Nc4ccc(S(N)(=O)=O)cc4)nc23)c1` [Compound 719, 4-(8-(3-methoxybenzyloxy)quinazolin-2-ylamino)benzenesulfonamide], for which the EC50 in the assay on A2780 cells (cell proliferation, A2780 cells) is < 5 µM.

Consider `C#Cc1cc(OC2CCNCC2)c2nc(Nc3ccc(C(=O)N4CCOCC4)cc3)ncc2c1Cl` [Compound 1032, (4-(5-chloro-6-ethynyl-8-(piperidin-4-yloxy)quinazolin-2-ylamino)phenyl)(morpholino)methanone], for which the IC50 on PDK1 kinase is < 5 µM. Further, the EC50 with PC-3 cells is < 5 µM.

In the case of `COc1c(-c2cnn(C)c2)cc(Cl)c2cnc(Nc3ccc(C(=O)N4CCOCC4)cc3)nc12` [Compound 1033, (4-(5-chloro-8-methoxy-7-(1-methyl-1H-pyrazol-4-yl)quinazolin-2-ylamino)phenyl)(morpholino)methanone], the IC50 on PDK1 kinase was < 5 µM. In addition, in the assay with PC-3 cells, the EC50 was < 5 µM.

`COc1c(-c2cnn(C)c2)cc(Cl)c2cnc(Nc3ccc(C(=O)NC(C)C)cc3)nc12` [Compound 1034, 4-(5-chloro-8-methoxy-7-(1-methyl-1H-pyrazol-4-yl)quinazolin-2-ylamino)-N-isopropylbenzamide]: the IC50 at PDK1 kinase is < 5 µM. Further, the EC50 in the assay with PC-3 cells is < 5 µM.

`COc1c(-c2cnn(C)c2)cc(Cl)c2cnc(Nc3ccc(N4CCOCC4)cc3)nc12` [Compound 1035, 5-chloro-8-methoxy-7-(1-methyl-1H-pyrazol-4-yl)-N-(4-morpholinophenyl)quinazolin-2-amine]: the IC50 on PDK1 kinase was < 5 µM. Further, in the assay on PC-3 cells, the EC50 is < 5 µM.

Regarding `COc1c(-c2cnn(C)c2)cc(Cl)c2cnc(Nc3cccc(N4CCOCC4)c3)nc12` [Compound 1036, 5-chloro-8-methoxy-7-(1-methyl-1H-pyrazol-4-yl)-N-(3-morpholinophenyl)quinazolin-2-amine], the IC50 on PDK1 kinase was < 5 µM. Besides, the EC50 with PC-3 cells was < 5 µM.

Consider `COc1c(-c2cnn(C)c2)cc(Cl)c2cnc(Nc3cc(CN(C)C)cc(NC(C)=O)c3)nc12` [Compound 1037, N-(3-(5-chloro-8-methoxy-7-(1-methyl-1H-pyrazol-4-yl)quinazolin-2-ylamino)-5-((dimethylamino)methyl)phenyl)acetamide], for which the IC50 on PDK1 kinase is < 5 µM. Further, the EC50 in the assay on PC-3 cells is < 5 µM.

Take `COc1c(-c2cnn(C)c2)cc(Cl)c2cnc(Nc3ccc(C(=O)NC4CC4)cc3)nc12` [Compound 1038, 4-(5-chloro-8-methoxy-7-(1-methyl-1H-pyrazol-4-yl)quinazolin-2-ylamino)-N-cyclopropylbenzamide]: the IC50 at PDK1 kinase was < 5 µM. Also, in the assay on PC-3 cells, the EC50 is < 5 µM.

As to `C#Cc1cc2cnc(Nc3ccc(C(=O)NC(C)C)cc3)nc2cc1-c1ccc2c(c1)CCNC2=O` [Compound 1039, 4-(6-ethynyl-7-(1-oxo-1,2,3,4-tetrahydroisoquinolin-6-yl)quinazolin-2-ylamino)-N-isopropylbenzamide], the IC50 at PDK1 kinase was < 5 µM. Besides, the EC50 in the assay on PC-3 cells is < 5 µM.

On to `CC(C)NC(=O)c1ccc(Nc2ncc3ccc(-c4ccc5c(c4)CCNC5=O)cc3n2)cc1` [Compound 1040, N-isopropyl-4-(7-(1-oxo-1,2,3,4-tetrahydroisoquinolin-6-yl)quinazolin-2-ylamino)benzamide], for which the IC50 at PDK1 kinase was < 5 µM. Besides, the EC50 in the assay with PC-3 cells lay within 5 to 10 µM.

`C#Cc1cc2cnc(Nc3ccc(C(=O)N4CCOCC4)cc3)nc2cc1-c1ccc2c(c1)CCNC2=O` [Compound 1041, 6-(6-ethynyl-2-(4-(morpholine-4-carbonyl)phenylamino)quinazolin-7-yl)-3,4-dihydroisoquinolin-1(2H)-one]: the IC50 on PDK1 kinase was < 5 µM. For the same molecule, the EC50 with PC-3 cells lay in the range of 5 to 10 µM.
